According to patent US9382230B2, “Methods and compositions for modulating Ire1, SRC and ABL activity” (The Regents of the University of California, priority 2008, dated 2016):

Tests used:
[1] = target: T1, yIre1 (Saccharomyces cerevisiae, UniProt P32361); assay: RNA cleavage-based yIre1 activation assay; format: biochemical, yeast; set-up: unit not given here; details: 3 μM yIre1, stem loop RNA, 15 μM effector
T1 construct: GST (N); made in house; host or cells: E. coli BL21 CodonPlus (RIPL)
T1 sequence (P32361 with tags, fused parts or gaps limits assumed): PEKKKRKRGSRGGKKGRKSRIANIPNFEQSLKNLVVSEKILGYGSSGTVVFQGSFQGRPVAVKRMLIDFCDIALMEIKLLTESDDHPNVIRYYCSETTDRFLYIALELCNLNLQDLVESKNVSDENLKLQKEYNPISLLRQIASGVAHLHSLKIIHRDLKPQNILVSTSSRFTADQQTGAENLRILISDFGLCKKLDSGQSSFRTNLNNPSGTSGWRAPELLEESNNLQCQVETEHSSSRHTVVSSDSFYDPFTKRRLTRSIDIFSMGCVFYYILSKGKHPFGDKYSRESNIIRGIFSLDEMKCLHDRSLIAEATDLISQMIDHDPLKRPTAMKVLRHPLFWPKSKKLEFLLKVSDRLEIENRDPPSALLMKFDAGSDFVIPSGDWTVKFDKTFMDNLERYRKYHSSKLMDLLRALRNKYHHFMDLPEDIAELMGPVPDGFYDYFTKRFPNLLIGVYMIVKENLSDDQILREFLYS
Protocol: The RNase Cleavage Assay.
(§1) RNA cleavage reactions were conducted at 30° C. in buffer containing 20 mM HEPES (pH 7.5), 70 mM NaCl, 2 mM ADP (pH 7.0), 2 mM Mg(OAc)2, 5 mM DTT, 5% glycerol, less than 1 nM ^32p-labeled RNA substrate, and 3 nM-20 μM Ire1. Reaction solutions and buffers were designed using Biochem Lab Solutions 3.5. Reactions were prepared such that 1 μl of RNA was added to 9 μl of pre-warmed reaction mixture containing all components except RNA. Typically, 3-10 minute time courses were collected starting from 5 seconds for the first time point. At time intervals, 1 μl of solution was withdrawn from each reaction and mixed wish 6 μl stop solution containing 10 M urea, 0.1% SDS, 0.1 mM EDTA, 0.05% xylene cyanol, and 0.05% bromophenol blue. The samples were separated by a denaturing 10% PAGE and exposed on a phosphor storage screen. The screens were scanned on a Storm or a Typhoon instrument and quantified using ImageQuant 5.0 or GelQuant.NET 1.4 programs. The data were plotted and fit in SigmaPlot 6.0.
RNA cleavage can be used to assess yIre1 activation as shown by FIG. 20 and the table below (3 μM yIre1, stem loop RNA, 15 μM effector): […]

[2] = tested on: Ire1; assay: Summary statement of Ire1 activation or inhibition (assay not specified)
[3] = tested on: Xbp-1 mRNA splicing (UPR activation through Ire1) in HEK293 cells; assay: XBP-1 mRNA splicing by RT-PCR in HEK293 cells (UPR); format: cell-based, mammalian; details: Hek293 cells treated for 4 hrs, RT-PCR
Protocol: The effect of tunicamycin, SU11248, DJM2005, APY24, and APY29 on Ire1 activity was tested in mammalian cells using HEK293 cells as a model system. Cells were treated according to the methods described in Lin J H et al., Science 318:944 (2007). After treatment with the corresponding agents for the indicated time, Xbp-1 mRNA splicing was determined by RT-PCR. Unspliced (u) and spliced (s) Xbp1-mRNA products are indicated and serve as a measure of UPR activation through Ire1.
Exemplary compounds were assayed for their effect on UPR. Results are set forth in FIGS. 18-19 and in the table below.

[4] = target: T1, yIre1; assay: RNA cleavage-based yIre1 inhibition assay with pre-activated purified Ire1; format: biochemical, yeast; details: 1.5 μM yIre1, 100 μM ADP-2 mM Mg, 30 μM effector (FIG. 21A)
Protocol: FIGS. 21A and B. A. RNA cleavage-based yIre1 inhibition assay with purified Ire1 under conditions that have pre-activated Ire1. […] Thus, some APY compounds could serve as both Ire1 RNase inhibitors or Ire1 RNase activators, depending on the experimental setting.
as §1, with “RNA cleavage reactions were conducted at 30° C. in buffer containing 20 mM HEPES (pH 7.5), 70 mM NaCl, 2 mM ADP (pH 7.0), 2 mM Mg(OAc)2, 5 mM DTT, 5% glycerol, less than 1 nM ^32p-labeled RNA substrate, and 3 nM-20 μM Ire1.” left out
An RNA cleavage inhibition assay was also performed with exemplary compounds as shown by FIG. 21A (1.5 μM yIre1 mm loop RNA, 100 μM ADP-2 mM Mg, 30 μM effector).

RNA cleavage (yIre1 activation) [1]: 0.001872
inhibition of Ire1 RNase [4]: inhibit Ire1
Structure (SMILES): Cc1cc(Nc2cc(C3CCCCC3)n[nH]2)nc(Nc2ccc(CC#N)cc2)n1 [APY81]
inhibition of Ire1 [2]: significant inhibition
% splicing mRNA XBP-I Average ([3]; Tm 0.3 ug/ml + compound 2 μM): 7%
% splicing mRNA XBP-I Average ([3]; compound 2 μM): 11%
% splicing mRNA XBP-I Average ([3]; compound 10 μM): 16%
